Drawing on ChEMBL document CHEMBL1150095, “Antitumor activity and stereochemistry of acetylenic alcohols from the sponge Cribrochalina vasculum” (1995), this text covers Activity for one compound.

The source made the active and inactive calls. The rule behind the calls is not given here.

For one assay, the system named is NCI-H522. Description: Antitumor activity against human NCI-H522 cells. It counts as functional.
Another assay relates to IGROV-1. In words: Antitumor activity against human IGROV1 cells. It counts as functional.

For the compound `C#C[C@@H](O)/C=C/CCCCCCCCCCCCCC(C)C`, the result with NCI-H522 and in the assay on IGROV-1 was Active.
